Measured values published in patent US20210317145A1, “Boronic Acid Derivatives” (Merck Patent GmbH, priority 2018, published 2021).

Columns and labels:
[1] = target: LMP7 (purified human immuno proteasome) (Homo sapiens, UniProt P20618+P28062); experiment: Determination of LMP7 activity (fluorescence intensity assay, Suc-LLVY-AMC); type: biochemical; settings: for Selectivity LMP7 vs Beta5: LMP7 versus Beta5, incubation for 20 minutes; for IC50: purified human immuno proteasome 0.25 nM, incubation for 20 minutes at 25° C., Suc-LLVY-AMC 40 μM
Experimental: Determination of LMP7 Activity:
Measurement of LMP7 inhibition is performed in 384 well format based on fluorescence intensity assay.
(§1) Purified human immuno proteasome (0.25 nM) and serial diluted compounds in DMSO (range of concentrations from 30 μM to […]) or controls are incubated for 20 minutes or 120 minutes (long incubation) at 25° C. in assay buffer containing 50 mM Tris pH 7.4, 0.03% SDS, 1 mM EDTA and 1% DMSO. The reaction is initiated by the addition of the fluorogenic peptide substrate, Suc-LLVY-AMC (Bachem 1-1395), at a concentration of 40 μM. After 60 minutes of incubation at 37° C., fluorescence intensity is measured at λex=350 nm and λem=450 nm with a fluorescence reader (Perkin Elmer Envision reader or equivalent).
(§2) Unless indicated otherwise the results are obtained after incubation for 20 minutes.

[2] = target: Beta5 (purified human constitutive proteasome) (Homo sapiens, UniProt P20618+P28074); experiment: Determination of Beta5 activity (fluorescence intensity assay, Suc-LLVY-AMC); type: biochemical; settings: purified human constitutive proteasome 1.25 nM, incubation for 20 minutes at 25° C., Suc-LLVY-AMC 40 μM
Experimental: Determination of Beta5 Activity:
Measurement of Beta5 inhibition is performed in 384 well format based on fluorescence intensity assay.
as §1, with “constitutive” for “immuno”, “(1.25” for “(0.25”
as §2

Row | SMILES | Selectivity LMP7 vs Beta5 [1] | IC50 [1] [nM] | IC50 [2] [nM] | Selectivity LMP7 vs Beta5 ([1]; listed as drawing 86) | Selectivity LMP7 vs Beta5 ([1]; listed as drawing 87)
1 | CSC(C(=O)N[C@@H](Cc1coc2ccccc12)B(O)O)c1ccccc1 (single isomer, unassigned) [Compound 7] | ++ (100 ≤ Selectivity < 300) | ≤ 50 | 5000 to 30000 |  | 
2 | CSCC(=O)N[C@H](Cc1coc2c(C)cccc12)B(O)O [Compound 1, [(1S)-2-(7-methylbenzo-furan-3-yl)-1-[(2-methyl-sulfanylacetyl)amino]-ethyl]boronic acid] | ++ (100 ≤ Selectivity < 300) | 500 to 5000 | 5000 to 30000 |  | 
3 | CSCC(=O)N[C@@H](Cc1coc2c(C(F)(F)F)cccc12)B(O)O [Compound 3, [(1R)-1-[(2-methyl-sulfanylacetyl)amino]-2-[7-(trifluoromethyl)-benzofuran-3-yl]ethyl]-boronic acid] | +++ (300 ≤ Selectivity < 500) | ≤ 50 | 500 to 5000 |  | 
4 | COc1cccc2occ(C[C@H](NC(=O)CSC)B(O)O)c12 [Compound 4, [(1R)-2-(4-methoxy-benzofuran-3-yl)-1-[(2-methylsulfanylacetyl)-amino]ethyl]boronic acid] | + (Selectivity <100) | 500 to 5000 | 5000 to 30000 |  | 
5 | CSCC(=O)N[C@@H](C[C@@H]1COc2ccccc21)B(O)O [Compound 5, [(1R)-2-[(3S)-2,3-dihydrobenzofuran-3-yl]-1-[(2-methylsulfan-ylacetyl)amino]ethyl]-boronic acid] | +++ (300 ≤ Selectivity < 500) | ≤ 50 | 500 to 5000 |  | 
6 | CSCC(=O)N[C@@H](Cc1coc2c(C)cccc12)B(O)O [Compound 6, [(1R)-2-(7-methylbenzo-furan-3-yl)-1-[(2-methyl-sulfanylacetyl)amino]-ethyl]boronic acid] | ++ (100 ≤ Selectivity < 300) | ≤ 50 | 50 to 500 |  | 
7 | O=C(N[C@@H](Cc1coc2ccccc12)B(O)O)C1SCCS1 [Compound 8, [(1R)-2-(benzofuran-3-yl)-1-(1,3-dithiolane-2-carbonylamino)ethyl]-boronic acid] | ++ (100 ≤ Selectivity < 300) | ≤ 50 | 500 to 5000 |  | 
8 | CSCC(=O)NC(Cc1coc2c(F)cccc12)B(O)O (stereo not drawn) [Compound 9, [2-(7-fluorobenzofuran-3-yl)-1-[(2-methyl-sulfanylacetyl)amino]-ethyl]boronic acid] | ++ (100 ≤ Selectivity < 300) | ≤ 50 | 500 to 5000 |  | 
9 | CSCC(=O)N[C@@H](CC1COc2c(C)cccc21)B(O)O (stereo partly drawn) [Compound 10, [(1R)-2-(7-methyl-2,3-dihydrobenzofuran-3-yl)-1-[(2-methyl-sulfanylacetyl)amino]-ethyl]boronic acid] | ++++ (Selectivity ≥ 500) | ≤ 50 | 5000 to 30000 |  | 
10 | O=C(N[C@@H](Cc1coc2ccccc12)B(O)O)C1OCCS1 (stereo partly drawn) [Compound 11, [(1R)-2-(benzofuran-3-yl)-1-(1,3-oxathiolane-2-carbonylamino)ethyl]-boronic acid] | ++ (100 ≤ Selectivity < 300) | ≤ 50 | 50 to 500 |  | 
11 | CSCC(=O)N[C@@H](Cc1coc2c(F)cccc12)B(O)O [Compound 12, [(1R)-2-(7-fluorobenzo-furan-3-yl)-1-[(2-methyl-sulfanylacetyl)amino]-ethyl]boronic acid] | ++ (100 ≤ Selectivity < 300) | ≤ 50 | 50 to 500 |  | 
12 | CCSCC(=O)N[C@@H](Cc1coc2ccccc12)B(O)O [Compound 13, [(1R)-2-(benzofuran-3-yl)-1-[(2-ethylsulfanyl-acetyl)amino]ethyl]-boronic acid] | +++ (300 ≤ Selectivity < 500) | ≤ 50 | 500 to 5000 |  | 
13 | CSCC(=O)N[C@@H](Cc1coc2c(C)c(Cl)ccc12)B(O)O [Compound 14, [(1R)-2-(6-chloro-7-methylbenzofuran-3-yl)-1-[(2-methyl-sulfanylacetyl)amino]-ethyl]boronic acid] | +++ (300 ≤ Selectivity < 500) | ≤ 50 | 500 to 5000 |  | 
14 | O=C(CSCCCO)N[C@@H](Cc1coc2ccccc12)B(O)O [Compound 15, [(1R)-2-(benzofuran-3-yl)-1-[[2(3-hydroxy-propylsulfanyl)acetyl]-amino]ethyl]boronic acid] | + (Selectivity <100) | ≤ 50 | 50 to 500 |  | 
15 | CSCC(=O)N[C@@H](Cc1coc2c(Cl)cccc12)B(O)O [Compound 16, [(1R)-2-(7-chlorobenzo-furan-3-yl)-1-[(2-methylsulfanylacetyl)-amino]ethyl]boronic acid] | ++ (100 ≤ Selectivity < 300) | ≤ 50 | 50 to 500 |  | 
16 | O=C(N[C@@H](Cc1coc2ccccc12)B(O)O)C1CCCS1 (stereo partly drawn) [Compound 17, [(1R)-2-(benzofuran-3-yl)-1-(tetrahydrothio-phene-2-carbonyl-amino)ethyl]boronic acid] | ++ (100 ≤ Selectivity < 300) | ≤ 50 | 5000 to 30000 |  | 
17 | CSCC(=O)NC(CC1COc2ccccc21)B(O)O (stereo not drawn) [Compound 19, [2-(2,3-dihydrobenzo-furan-3-yl)-1-[(2-methylsulfanylacetyl)-amino]ethyl]boronic acid] | ++++ (Selectivity ≥ 500) | ≤ 50 | 5000 to 30000 |  | 
18 | CSCC(=O)NC(Cc1coc2c(C)c(Cl)ccc12)B(O)O (stereo not drawn) [Compound 20, [2-(6-chloro-7-methyl-benzofuran-3-yl)-1-[(2-methylsulfanylacetyl)-amino]ethyl]boronic acid] | +++ (300 ≤ Selectivity < 500) | ≤ 50 | 500 to 5000 |  | 
19 | CSCC(=O)N[C@@H](Cc1ccc(C)cc1C)B(O)O [Compound 21, [(1R)-2-(2,4-dimethyl-phenyl)-1-[(2-methyl-sulfanylacetyl)amino]-ethyl]boronic acid] | ++ (100 ≤ Selectivity < 300) | ≤ 50 | 500 to 5000 |  | 

Results, then the compound that gave them:

Row | Selectivity LMP7 vs Beta5 [1] | IC50 [1] [nM] | IC50 [2] [nM] | Selectivity LMP7 vs Beta5 ([1]; listed as drawing 86) | Selectivity LMP7 vs Beta5 ([1]; listed as drawing 87) | SMILES
20 |  | ≤ 50 | 50 to 500 | + (Selectivity <100) |  | O=C(N[C@@H](Cc1coc2ccccc12)B(O)O)C1Cc2ccccc2O1 (single isomer, unassigned) [Compound 36]
21 |  | ≤ 50 | 500 to 5000 |  | +++ (300 ≤ Selectivity < 500) | O=C(N[C@@H](Cc1coc2ccccc12)B(O)O)C1Cc2ccccc2O1 (single isomer, unassigned) [Compound 37]
22 | ++ (100 ≤ Selectivity < 300) | ≤ 50 | 500 to 5000 |  |  | CSCC(=O)N[C@@H](Cc1coc2ccccc12)B(O)O [Compound 22, [(1R)-2-(benzofuran-3-yl)-1-[(2-methyl-sulfanylacetyl)-amino]ethyl]boronic acid]
23 | ++ (100 ≤ Selectivity < 300) | 50 to 500 | 5000 to 30000 |  |  | CSCC(=O)N[C@H](Cc1coc2c(F)cccc12)B(O)O [Compound 23]
24 | ++ (100 ≤ Selectivity < 300) | ≤ 50 | 500 to 5000 |  |  | O=C(CCO)N[C@@H](Cc1coc2ccccc12)B(O)O [Compound 24, [(1R)-2-(benzofuran-3-yl)-1-(3-hydroxypro-panoylamino)ethyl]-boronic acid]
25 | ++ (100 ≤ Selectivity < 300) | ≤ 50 | 5000 to 30000 |  |  | CC(C)(O)CC(=O)N[C@@H](Cc1coc2ccccc12)B(O)O [Compound 25, [(1R)-2-(benzofuran-3-yl)-1-[(3-hydroxy-3-methylbutanoyl)amino]-ethyl]boronic acid]
26 | ++ (100 ≤ Selectivity < 300) | 50 to 500 | 5000 to 30000 |  |  | O=C(N[C@@H](Cc1coc2ccccc12)B(O)O)[C@@H]1CCCO1 [Compound 26, [(1R)-2-(benzofuran-3-yl)-1-[[(2S)-tetrahydro-furan-2-carbonyl]amino]-ethyl]boronic acid]
27 | ++ (100 ≤ Selectivity < 300) | ≤ 50 | 500 to 5000 |  |  | O=C(N[C@@H](Cc1coc2ccccc12)B(O)O)[C@H]1CCCO1 [Compound 27, [(1R)-2-(benzofuran-3-yl)-1-[[(2R)-tetrahydro-furan-2-carbonyl]amino]-ethyl]boronic acid]
28 | + (Selectivity <100) | ≤ 50 | 500 to 5000 |  |  | COCC(=O)N[C@@H](Cc1coc2ccccc12)B(O)O [Compound 28, [(1R)-2-(benzofuran-3-yl)-1-[(2-methoxy-acetyl)amino]ethyl]-boronic acid]
